For one series, the target named is P2rx2 (rat). The series is described as follows: reporter assay of Huesken 2005. To be noted: siRNA. A general note: In a reporter assay the amount or activity of a reporter protein is the signal.
In the next series the target is UBE2T. The series is described as follows: reporter assay of Huesken 2005. The following applies: siRNA.

Oligonucleotides are written 5' to 3', each unit as a sugar letter and its base; * is a phosphorothioate linkage, no mark a phosphodiester; rarer units and linkages stand in square brackets, end groups in braces. Plain capitals give the bases only. d = 2'-deoxy (DNA); r = 2'-OH (RNA)
Also: test concentration or dose not given here.

Take “sense rGrCrUrArCrCrArGrGrArCrArGrCrGrArGrArCdTdT / antisense rGrUrCrUrCrGrCrUrGrUrCrCrUrGrGrUrArGrCdTdT”: the normalised inhibition (eCFP-eYFP dual reporter) with P2rx2 (rat) is 60.5%. With “sense rArCrUrArCrCrArCrCrArCrUrCrGrArArCrUrCdTdT / antisense rGrArGrUrUrCrGrArGrUrGrGrUrGrGrUrArGrUdGdC”, the normalised inhibition (eCFP-eYFP dual reporter) with P2rx2 (rat) is 43.6%. Still for that read-out and setting: next, “sense rUrGrGrCrCrArCrUrGrCrUrCrUrGrArCrCrUrCdTdT / antisense rGrArGrGrUrCrArGrArGrCrArGrUrGrGrCrCrAdGdA”: 57%; “sense rCrUrCrCrArUrCrGrGrGrGrUrGrGrGrCrUrCrCdTdT / antisense rGrGrArGrCrCrCrArCrCrCrCrGrArUrGrGrArGdGdT”: 38.5%. On the same count and under the same terms, next, “sense rArArCrArArGrCrUrCrUrArCrArGrCrCrArUrAdTdT / antisense rUrArUrGrGrCrUrGrUrArGrArGrCrUrUrGrUrUdTdT”: 76.6%; “sense rGrGrArArGrArCrArArArGrUrGrUrGrGrGrArCdTdT / antisense rGrUrCrCrCrArCrArCrUrUrUrGrUrCrUrUrCrCdGdA”: 69.5%; “sense rUrGrCrCrCrUrUrGrUrCrUrUrGrGrGrCrCrArGdTdT / antisense rCrUrGrGrCrCrCrArArGrArCrArArGrGrGrCrAdAdG”: 37%. As for “sense rUrArCrCrUrCrArArGrCrArUrUrGrCrArCrArUdTdT / antisense rArUrGrUrGrCrArArUrGrCrUrUrGrArGrGrUrAdGdT”, the normalised inhibition (eCFP-eYFP dual reporter) in the series with P2rx2 (rat) amounted to 72.3%.

For the substance “sense rGrCrCrArUrArArGrArArGrUrUrCrGrArCrArAdTdT / antisense rUrUrGrUrCrGrArArCrUrUrCrUrUrArUrGrGrCdTdG”, the normalised inhibition (eCFP-eYFP dual reporter) with P2rx2 (rat) was 88.6%. On the same count and under the same terms, next, “sense rUrUrGrCrCrArArGrUrArUrUrArCrArArGrArUdTdT / antisense rArUrCrUrUrGrUrArArUrArCrUrUrGrGrCrArAdAdC”: 56.7%. Regarding “sense rGrArGrGrArArUrArCrGrUrArArArGrCrCrCrCdTdT / antisense rGrGrGrGrCrUrUrUrArCrGrUrArUrUrCrCrUrCdCdA”, the normalised inhibition (eCFP-eYFP dual reporter) with P2rx2 (rat) worked out at 34.9%.

As to “sense rCrArCrCrArCrUrCrGrArArCrUrCrUrCrArUrCdTdT / antisense rGrArUrGrArGrArGrUrUrCrGrArGrUrGrGrUrGdGdT”, the normalised inhibition (eCFP-eYFP dual reporter) in the series with P2rx2 (rat) came out at 64.7%. Still for that read-out and setting: next, “sense rUrCrArUrCrArArUrCrUrGrGrCrCrArCrUrGrCdTdT / antisense rGrCrArGrUrGrGrCrCrArGrArUrUrGrArUrGrAdTdG”: 43.1%. Still for that read-out and setting: the same measure for “sense rArGrUrCrArCrUrArCrUrCrCrCrArGrGrArUrCdTdT / antisense rGrArUrCrCrUrGrGrGrArGrUrArGrUrGrArCrUdAdG”: 64.6%; for “sense rArGrUrCrArUrCrArUrCrArArCrUrGrGrArArCdTdT / antisense rGrUrUrCrCrArGrUrUrGrArUrGrArUrGrArCrUdCdC”: 33.7%; for “sense rCrArArGrGrCrArArUrGrGrGrArUrUrCrGrCrAdTdT / antisense rUrGrCrGrArArUrCrCrCrArUrUrGrCrCrUrUrGdCdA”: 64.4%. On to “sense rCrArUrUrGrUrUrGrArGrArArGrGrCrArGrGrAdTdT / antisense rUrCrCrUrGrCrCrUrUrCrUrCrArArCrArArUrGdAdA”, for which, in the series with P2rx2 (rat), the normalised inhibition (eCFP-eYFP dual reporter) was 61.4%. Regarding “sense rUrGrArGrArArGrGrCrArGrGrArGrArGrArArCdTdT / antisense rGrUrUrCrUrCrUrCrCrUrGrCrCrUrUrCrUrCrAdAdC”, the normalised inhibition (eCFP-eYFP dual reporter) with P2rx2 (rat) is 32.3%. Same read-out and setting: the same measure for “sense rCrArCrUrArCrUrCrCrCrArGrGrArUrCrArGrCdTdT / antisense rGrCrUrGrArUrCrCrUrGrGrGrArGrUrArGrUrGdAdC”: 46.4%; for “sense rUrGrUrCrUrGrArArUrCrArGrArGrUrGrCrArAdTdT / antisense rUrUrGrCrArCrUrCrUrGrArUrUrCrArGrArCrAdAdG”: 80.9%; for “sense rArGrGrArUrCrGrArGrGrUrUrArCrCrCrCrUrUdTdT / antisense rArArGrGrGrGrUrArArCrCrUrCrGrArUrCrCrUdGdG”: 76.8%.

For “sense rGrCrCrCrGrGrUrGrGrArGrGrArUrGrGrArArCdTdT / antisense rGrUrUrCrCrArUrCrCrUrCrCrArCrCrGrGrGrCdAdC”, the normalised inhibition (eCFP-eYFP dual reporter) in the series with P2rx2 (rat) is 48.4%. Same read-out and setting: the same measure for “sense rCrUrArCrCrCrCrArArGrUrUrCrArArGrUrUrCdTdT / antisense rGrArArCrUrUrGrArArCrUrUrGrGrGrGrUrArGdTdG”: 62.8%.

“sense rUrCrCrCrArGrArCrCrUrUrGrGrGrArArCrArUdTdT / antisense rArUrGrUrUrCrCrCrArArGrGrUrCrUrGrGrGrAdAdG”: in the series with P2rx2 (rat), the normalised inhibition (eCFP-eYFP dual reporter) was found to be 50.4%.

For “sense rArGrCrArUrArUrGrGrGrArCrArArArGrArCrCdTdT / antisense rGrGrUrCrUrUrUrGrUrCrCrCrArUrArUrGrCrUdGdG”, the normalised inhibition (eCFP-eYFP dual reporter) with P2rx2 (rat) stood at 53.1%. Still for that read-out and setting: the same measure for “sense rCrUrGrGrArCrArUrGrCrArArGrGrCrArArUrGdTdT / antisense rCrArUrUrGrCrCrUrUrGrCrArUrGrUrCrCrArGdCdT”: 55.2%. With “sense rCrUrCrUrGrArCrUrGrArGrCrArGrGrUrGrGrUdTdT / antisense rArCrCrArCrCrUrGrCrUrCrArGrUrCrArGrArGdCdA”, the normalised inhibition (eCFP-eYFP dual reporter) with P2rx2 (rat) worked out at 46.8%. As for “sense rArGrGrCrUrGrGrGrUrUrUrCrArUrUrGrUrUrGdTdT / antisense rCrArArCrArArUrGrArArArCrCrCrArGrCrCrUdGdA”, in the series with P2rx2 (rat), the normalised inhibition (eCFP-eYFP dual reporter) is 64.9%. For the substance “sense rGrGrUrGrGrUrGrGrArCrArCrArCrUrUrGrGrCdTdT / antisense rGrCrCrArArGrUrGrUrGrUrCrCrArCrCrArCrCdTdG”, the normalised inhibition (eCFP-eYFP dual reporter) with P2rx2 (rat) was 52.2%. In the case of “sense rUrCrGrUrGrCrArGrArArArArGrCrUrArCrCrAdTdT / antisense rUrGrGrUrArGrCrUrUrUrUrCrUrGrCrArCrGrAdTdG”, the normalised inhibition (eCFP-eYFP dual reporter) with P2rx2 (rat) was found to be 74.2%. Same read-out and setting: next, “sense rCrArGrCrArUrArUrGrGrGrArCrArArArGrArCdTdT / antisense rGrUrCrUrUrUrGrUrCrCrCrArUrArUrGrCrUrGdGdC”: 51.7%. For “sense rGrUrGrUrCrArUrUrGrGrArGrUrCrArUrCrArUdTdT / antisense rArUrGrArUrGrArCrUrCrCrArArUrGrArCrArCdCdG”, the normalised inhibition (eCFP-eYFP dual reporter) with P2rx2 (rat) came out at 59%. As to “sense rUrGrArCrCrCrUrUrGrCrCrCrUrUrGrUrCrUrUdTdT / antisense rArArGrArCrArArGrGrGrCrArArGrGrGrUrCrAdCdA”, the normalised inhibition (eCFP-eYFP dual reporter) with P2rx2 (rat) worked out at 53.9%. Still for that read-out and setting: next, “sense rArCrArGrCrUrCrUrArCrCrUrGrCrCrArUrUrCdTdT / antisense rGrArArUrGrGrCrArGrGrUrArGrArGrCrUrGrUdGdA”: 42.3%. Same read-out and setting: the same measure for “sense rUrCrGrArUrGrUrUrArUrCrGrUrGrCrArUrGrGdTdT / antisense rCrCrArUrGrCrArCrGrArUrArArCrArUrCrGrAdTdT”: 57.4%. “sense rCrCrUrGrCrGrArGrCrUrCrArArArUrArUrUrAdTdT / antisense rUrArArUrArUrUrUrGrArGrCrUrCrGrCrArGrGdTdC”: in the series with UBE2T, the normalised inhibition (eCFP-eYFP dual reporter) stood at 102%. The same measure, in the same setting: next, “sense rArUrUrCrCrUrGrArGrArGrGrUrArCrCrCrArUdTdT / antisense rArUrGrGrGrUrArCrCrUrCrUrCrArGrGrArArUdGdA”: 114%. For the substance “sense rArGrGrUrArCrCrCrArUrUrUrGrArArCrCrUrCdTdT / antisense rGrArGrGrUrUrCrArArArUrGrGrGrUrArCrCrUdCdT”, the normalised inhibition (eCFP-eYFP dual reporter) with UBE2T worked out at 63.1%. As for “sense rGrGrCrArUrCrArCrArUrGrUrUrGrGrCrArArGdTdT / antisense rCrUrUrGrCrCrArArCrArUrGrUrGrArUrGrCrCdTdG”, the normalised inhibition (eCFP-eYFP dual reporter) in the series with UBE2T worked out at 87.3%. On to “sense rGrArArGrCrArUrGrCrArArGrArCrArGrArArAdTdT / antisense rUrUrUrCrUrGrUrCrUrUrGrCrArUrGrCrUrUrCdTdC”, for which the normalised inhibition (eCFP-eYFP dual reporter) in the series with UBE2T was determined as 97.1%. Turning to “sense rUrGrUrUrCrUrCrArArArUrUrGrCrCrArCrCrAdTdT / antisense rUrGrGrUrGrGrCrArArUrUrUrGrArGrArArCrAdTdC”, in the series with UBE2T, the normalised inhibition (eCFP-eYFP dual reporter) worked out at 53.3%.

For the substance “sense rUrArArArGrArCrCrArArArUrGrGrArUrGrArCdTdT / antisense rGrUrCrArUrCrCrArUrUrUrGrGrUrCrUrUrUrAdTdC”, in the series with UBE2T, the normalised inhibition (eCFP-eYFP dual reporter) is 63.2%. On to “sense rArGrGrUrGrCrUrUrGrGrArGrArCrCrArUrCrCdTdT / antisense rGrGrArUrGrGrUrCrUrCrCrArArGrCrArCrCrUdTdT”, for which the normalised inhibition (eCFP-eYFP dual reporter) with UBE2T came to 65.6%.

For the substance “sense rArArGrGrUrGrCrUrUrGrGrArGrArCrCrArUrCdTdT / antisense rGrArUrGrGrUrCrUrCrCrArArGrCrArCrCrUrUdTdT”, the normalised inhibition (eCFP-eYFP dual reporter) with UBE2T was found to be 60.5%. As for “sense rUrCrCrGrArUrUrUrCrUrCrArCrUrCrCrArArUdTdT / antisense rArUrUrGrGrArGrUrGrArGrArArArUrCrGrGrAdTdC”, in the series with UBE2T, the normalised inhibition (eCFP-eYFP dual reporter) is 109%. Consider “sense rCrCrCrUrCrArArCrArUrCrGrCrArArCrUrGrUdTdT / antisense rArCrArGrUrUrGrCrGrArUrGrUrUrGrArGrGrGdAdT”, for which the normalised inhibition (eCFP-eYFP dual reporter) in the series with UBE2T was 106%. On the same count and under the same terms, the same measure for “sense rGrArArGrArGrArUrGrCrUrUrGrArUrArArUrCdTdT / antisense rGrArUrUrArUrCrArArGrCrArUrCrUrCrUrUrCdCdT”: 85.9%; for “sense rArArGrArGrArUrGrCrUrUrGrArUrArArUrCrUdTdT / antisense rArGrArUrUrArUrCrArArGrCrArUrCrUrCrUrUdCdC”: 99.4%; for “sense rUrGrUrUrGrGrCrArArGrArUrArArArGrArCrCdTdT / antisense rGrGrUrCrUrUrUrArUrCrUrUrGrCrCrArArCrAdTdG”: 75.8%.
